Assay results taken from ChEMBL document CHEMBL1287719, “N⁶-Alkyladenosines: Synthesis and evaluation of in vitro anticancer activity” (Bioorg Med Chem, 2010).
Active and inactive are the calls of the source. The rule behind the calls is not given here.

What was measured:
[1] = molecular target: Matrix metalloproteinase-9 (Homo sapiens) (UniProt P14780); assay: Induction of MMP9 activity in human T24 cells after 1 hr by zymography; assay type: cell-based; conditions: T-24
[2] = tested on: MDA-MB-231; assay: Cytotoxicity against human MDA-MB-231 cells at 10 uM after 72 hrs by MTT assay; assay type: functional, cell-based
[3] = tested on: Caco-2; assay: Cytotoxicity against human Caco-2 cells at 10 uM after 72 hrs by MTT assay; assay type: functional, cell-based
[4] = tested on: T-24; assay: Inhibition of human T24 cell migration by wound healing assay; assay type: functional, cell-based
[5] = tested on: J82; assay: Cytotoxicity against human J82 cells at 10 uM after 72 hrs by MTT assay; assay type: functional, cell-based
[6] = tested on: T-24; assay: Cytotoxicity against human T24 cells assessed as inhibition of clones formation at 10 uM after 1 week by clonogenic assay; assay type: functional, cell-based
[7] = tested on: T-24; assay: Inhibition of human T24 cells invasion on Matrigel after 24 hrs; assay type: functional, cell-based
[8] = tested on: T-24; assay: Cytotoxicity against human T24 cells at 10 uM after 72 hrs by MTT assay; assay type: functional, cell-based
[9] = tested on: T-24; assay: Growth inhibition of human T24 cells assessed as reduction of cell count after trypsinization at 10 uM after 72 hrs by MTT assay; assay type: functional, cell-based

Chain of Matrix metalloproteinase-9 (Homo sapiens) (P14780 whole entry): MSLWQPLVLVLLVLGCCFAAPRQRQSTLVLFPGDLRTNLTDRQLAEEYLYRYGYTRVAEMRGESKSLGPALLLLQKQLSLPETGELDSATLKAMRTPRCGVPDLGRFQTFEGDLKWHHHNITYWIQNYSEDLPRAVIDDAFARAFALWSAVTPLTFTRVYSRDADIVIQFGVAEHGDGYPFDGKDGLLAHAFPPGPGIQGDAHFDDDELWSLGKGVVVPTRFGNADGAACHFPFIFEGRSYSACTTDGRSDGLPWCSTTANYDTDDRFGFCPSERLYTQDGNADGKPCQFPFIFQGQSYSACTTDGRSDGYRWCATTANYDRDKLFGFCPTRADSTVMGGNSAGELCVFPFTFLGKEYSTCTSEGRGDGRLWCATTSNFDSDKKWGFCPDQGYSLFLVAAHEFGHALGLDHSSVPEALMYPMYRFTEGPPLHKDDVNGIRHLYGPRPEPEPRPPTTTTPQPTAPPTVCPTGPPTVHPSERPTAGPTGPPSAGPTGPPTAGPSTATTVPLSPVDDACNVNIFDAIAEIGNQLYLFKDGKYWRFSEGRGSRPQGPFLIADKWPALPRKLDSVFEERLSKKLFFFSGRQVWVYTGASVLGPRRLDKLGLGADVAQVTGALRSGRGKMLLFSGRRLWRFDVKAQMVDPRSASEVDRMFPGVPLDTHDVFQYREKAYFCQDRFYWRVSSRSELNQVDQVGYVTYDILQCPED

Row | Structure (SMILES) | Activity [1] | Activity [2] | Activity [3] | Activity [4] | Activity [5] | Activity [6] | inhibition [7] | Activity [8] | Activity [9]
1 | OC[C@H]1O[C@@H](n2cnc3c(NCC4CCC4)ncnc32)[C@H](O)[C@@H]1O | inactive | Active | Active | inactive | Active | Active | inactive | Active | Active
2 | CCCCNc1ncnc2c1ncn2[C@@H]1O[C@H](CO)[C@@H](O)[C@H]1O | inactive | Active | Active | inactive | Active | Active | inactive | Active | Active
3 | CC(C)CCNc1ncnc2c1ncn2[C@@H]1O[C@H](CO)[C@@H](O)[C@H]1O | inactive | Active | Active | inactive | Active | Active | inactive | Active | Active

Further lines, with some results ahead:

Row | Activity [1] | Structure (SMILES) | Activity [2] | Activity [3] | Activity [4] | Activity [5] | Activity [6] | inhibition [7] | Activity [8] | Activity [9]
4 | inactive | C=CCNc1ncnc2c1ncn2[C@@H]1O[C@H](CO)[C@@H](O)[C@H]1O | Active | Active | inactive | Active | Active | inactive | Active | Active
5 | inactive | OC[C@H]1O[C@@H](n2cnc3c(NCc4ccccc4)ncnc32)[C@H](O)[C@@H]1O | Active | Active | inactive | Active | Active | inactive | Active | Active
